Like-named read-outs stand apart in the source and are kept apart here. Each block holds one compound with its values, some of them ahead of it.
Tested on: phosphate uptake by rabbit intestinal Brush Border Membrane Vesicles (BBMV)
Experiment: 33PO4 uptake in rabbit intestinal BBMV (HTS), phosphate transporter inhibition in vitro
Type: biochemical
Details: for % Inhib. At 100 μM: Table 3, 100 μM compound; for IC50: read-out: IC50; for % Inhib. at 100 μM: Table 5, 100 μM compound
Method: The following example outlines the procedures required for in vitro measurement of the inhibition of phosphate uptake by rabbit intestinal Brush Border Membrane Vesicles (BBMV).
Rabbit Intestinal Brush Border Membrane Vesicles (BBMV) were isolated from mucosal scrapings of the upper small intestine (duodenum) of male New Zealand White rabbits. The scrapings were divided into 2 g aliquots in cryopreservation vials, frozen in liquid nitrogen, and stored at −80° C.
The following procedure was performed for each 2 g sample of BBMV mucosal scraping. Buffer volumes and container sizes were adjusted appropriately for the number of 2 g samples used. The entire preparation was performed on ice, unless otherwise stated.
Mucosal scrapings (2 g per tube) were thawed in a 37° C. water bath for 3 minutes and then placed on ice. The scrapings were suspended with a total of 7.5 ml of 300 MET, and transferred to a 250 mL Corning tube on ice. To the suspension was added 30 mL cold (4° C.) deionized water (dH20). The suspension was homogenized with a tissue homogenizer (Polytron) on high speed for 2 minutes. A stir bar and MgCl2 (81.3 mg) was added. The suspension was mixed well by inverting the closed tube. The suspension was stirred on ice, ensuring that a good vortex is achieved with the stir bar, for 40 minutes. The suspension was transferred to a chilled centrifuge tube and spun at 4000×g for 15 minutes. The supernatant was transferred to a new chilled centrifuge tube and spun at 32000×g for 30 minutes. The supernatant was discarded and the pellet was re-suspended with 34 mL cold 60 MET. The suspension was homogenized with a Dounce homogenizer with 8 strokes. The suspension was transferred to a fresh 250 mL Corning tube. A stir bar and 69.1 mg MgCl2 were added. The suspension was stirred well on ice for 10 minutes. The suspension was transferred to a chilled centrifuge tube and spun at 4000×g for 15 minutes. The supernatant was transferred to a new chilled centrifuge tube and spun at 32000×g for 30 minutes. The supernatant was discarded. At this stage, the preparation could be continued or this pellet (P4) could be frozen in liquid nitrogen and stored at −80° C. When needed, this pellet could be allowed to thaw at room temperature for 5 minutes. Continuing the preparation, the pellet was re-suspended with 34 mL cold 280 MH. The suspension was homogenized in a Dounce homogenize with 8 strokes. The suspension was transferred to a new chilled centrifuge tube and spun at 32000×g for 30 minutes. The supernatant was discarded. To the pellet was added 500 μL 280 MH and the pellet was re-suspended very carefully with a 1 mL tuberculin syringe with a 25-gauge needle with care not to create bubbles. Once the entire pellet was suspended, the suspension was transferred to a chilled 1.5 mL microfuge tube. The suspension was evenly dispersed by bringing the suspension up into the syringe through the 25-gauge needle, and back out again 8 times with care not to create bubbles. The total protein concentration was determined by performing a Bradford Protein Assay. Using that value, the BBMV were diluted with 280 MH to reach approximately 0.5-2.0 mg/mL. The solution was used as soon as possible for uptake studies.
The following experiment was performed using a Beckman Multimek 96-tip robotic pipettor. The following outlines the preparation required to screen one 96-well plate of compounds. However, multiple plates could be screened in one experiment.
To the “Uptake Buffers” was added ^33PO4 to reach 200,000 CPM/19 μL. The buffer solutions were stored at room temperature. The following control solutions were prepared and placed into appropriate wells of a polypropylene, 96-well V-bottom plate (“Hot Stock Plate”):
a. Maximum activity (MAX)−Na Uptake buffer+^33PO4 at 200,000 CPM/19 μL
b. Midline activity (MID)−MAX+100 μM KH2PO4, pH 7.4
c. Minimum activity (MIN)− K Uptake buffer+^33PO4 at 200,000 CPM/19 μL

SMILES: COc1cc([N+](=O)[O-])ccc1NC(=O)c1cc(Br)ccc1NS(=O)(=O)c1ccc(OC(F)(F)F)cc1 [Compound 170]
% Inhib. At 100 μM: 103%

IC50 (Table 2, phosphate uptake): 51 to 100 µM
SMILES: O=C(Nc1ccccc1Br)c1cc(Br)ccc1NS(=O)(=O)c1ccc(Cl)c([N+](=O)[O-])c1 [Compound 114]

SMILES: CCOP(=O)(OCC)c1cc(Br)ccc1NC(=O)c1ccc(F)cc1F [Compound 260]
IC50 (Table 10, phosphate uptake): 101 to 500 µM

IC50 (Table 4, phosphate uptake): 1000 to 1500 µM
SMILES: Cc1ccc(NC(=O)Nc2ccc(Br)cc2P(=O)(O)O)cc1 [Compound 207]

IC50 (Table 11, phosphate uptake): > 1500 µM
SMILES: O=C(/C=C/c1cccc(F)c1)c1cccc(Oc2ccccc2)c1 [Compound 279]

IC50 (Table 13, phosphate uptake): > 1500 µM
SMILES: Oc1ccc(/C=C/c2ccc(O)cc2)cc1 [Compound 306]

IC50 (Table 11, phosphate uptake): 501 to 1000 µM
SMILES: O=C(/C=C/c1ccco1)c1cccc(O)c1 [Compound 274]

IC50 (Table 13, phosphate uptake): > 1500 µM
SMILES: O=S(=O)(O)c1cc(NS(=O)(=O)c2cccc3cccnc23)ccc1/C=C/c1ccc(NS(=O)(=O)c2cccc3cccnc23)cc1S(=O)(=O)O [Compound 311]

SMILES: O=S(=O)(Nc1ccc(I)cc1F)c1ccc(OC(F)(F)F)cc1 [Compound 126]
% Inhib. At 100 μM: 103%

SMILES: CCOP(=O)(OCC)c1cc(Br)ccc1NC(=O)c1cccc2ccccc12 [Compound 265]
IC50 (Table 10, phosphate uptake): 501 to 1000 µM

IC50 (Table 2, phosphate uptake): < 50 µM
SMILES: COc1cccc(CNC(=O)c2cc(Br)ccc2NS(=O)(=O)c2ccc(OC(F)(F)F)cc2)c1 [Compound 54]

IC50 (Table 2, phosphate uptake): 101 to 500 µM
SMILES: O=C(NCc1cc(C(F)(F)F)cc(C(F)(F)F)c1)c1cc(Br)ccc1NS(=O)(=O)c1ccc(OC(F)(F)F)cc1 [Compound 69]

SMILES: O=S(=O)(Nc1ccc(Oc2ccccc2)cc1)c1ccc(OC(F)(F)F)cc1 [Compound 129]
% Inhib. At 100 μM: 84%

IC50 (Table 2, phosphate uptake): 51 to 100 µM
SMILES: O=C(NCc1ccc(OC(F)(F)F)cc1)c1cc(Br)ccc1NS(=O)(=O)c1ccc(OC(F)(F)F)cc1 [Compound 60]

SMILES: CSc1ccc(N(c2ccc(OC(F)(F)F)cc2)S(=O)(=O)c2ccc(OC(F)(F)F)cc2)cc1 [Compound 167]
% Inhib. At 100 μM: 21%

IC50 (Table 2, phosphate uptake): > 1500 µM
SMILES: Cc1c(Cl)cccc1NC(=O)c1cc(Br)ccc1NS(=O)(=O)c1ccc(Cl)cc1 [Compound 93]

IC50 (Table 1, phosphate uptake): 101 to 500 µM
SMILES: O=C(O)c1cc(Br)ccc1NS(=O)(=O)c1ccc(Cl)c([N+](=O)[O-])c1 [Compound 12]

IC50 (Table 2, phosphate uptake): 51 to 100 µM
SMILES: COc1ccc(S(=O)(=O)Nc2ccc(Br)cc2C(=O)Nc2ccc(Cl)cc2Cl)cc1[N+](=O)[O-] [Compound 104]

IC50 (Table 2, phosphate uptake): 1000 to 1500 µM
SMILES: Cc1cc(Br)ccc1NC(=O)c1cc(Br)ccc1NS(=O)(=O)c1ccc(OC(F)(F)F)cc1 [Compound 84]

SMILES: O=C(Nc1cccc(Cl)c1)Nc1cccc(C(F)(F)F)c1 [Compound 219]
% Inhib. at 100 μM: 92%

SMILES: O=[N+]([O-])c1cc(Br)ccc1NS(=O)(=O)c1ccc(OC(F)(F)F)cc1 [Compound 147]
% Inhib. At 100 μM: 61%

SMILES: O=C(Nc1cccc(C(F)(F)F)c1)Nc1cc(Cl)ccc1Cl [Compound 220]
% Inhib. at 100 μM: 92%

SMILES: Nc1cc(Br)ccc1N(c1ccc(OC(F)(F)F)cc1)S(=O)(=O)c1ccc(OC(F)(F)F)cc1 [Compound 136]
% Inhib. At 100 μM: 76%

SMILES: O=C(Nc1cccc(C(F)(F)F)c1)Nc1cccc(C(F)(F)F)c1 [Compound 214]
% Inhib. at 100 μM: 100%

IC50 (Table 1, phosphate uptake): > 1500 µM
SMILES: O=C(O)c1cc(Br)ccc1NS(=O)(=O)c1ccc(O)c([N+](=O)[O-])c1 [Compound 44]

IC50 (Table 2, phosphate uptake): > 1500 µM
SMILES: Cc1c(Cl)cccc1NC(=O)c1cc(Br)ccc1NS(=O)(=O)c1ccc(Cl)c([N+](=O)[O-])c1 [Compound 122]

IC50 (Table 4, phosphate uptake): < 50 µM
SMILES: O=C(Nc1ccc(OC(F)(F)F)cc1)Nc1ccc(Br)cc1P(=O)(O)O [Compound 177]

IC50 (Table 13, phosphate uptake): < 50 µM
SMILES: O=S(=O)(O)c1cc(/N=N/c2ccc(O)cc2)ccc1/C=C/c1ccc(/N=N/c2ccc(O)cc2)cc1S(=O)(=O)O [Compound 292]

IC50 (Table 2, phosphate uptake): 51 to 100 µM
SMILES: O=C(Nc1ccc(Cl)cc1Cl)c1cc(Br)ccc1NS(=O)(=O)c1ccc(Cl)cc1 [Compound 85]

IC50 (Table 2, phosphate uptake): < 50 µM
SMILES: O=C(NCc1ccc(F)cc1)c1cc(Br)ccc1NS(=O)(=O)c1ccc(OC(F)(F)F)cc1 [Compound 52]

IC50 (Table 4, phosphate uptake): < 50 µM
SMILES: O=C(Nc1cccc(C(F)(F)F)c1)Nc1ccc(Br)cc1P(=O)(O)O [Compound 178]
